Test results published in article PMC5637554 (MedChemComm, 2017).

Molecular target: MDM2 (Homo sapiens, UniProt Q00987)
Test: Fluorescence polarization
Type: binding
Settings: FP; 4-chloro-phenyl anchor instead of 6-chloro-indole

MDM2, sequence (Q00987 whole entry): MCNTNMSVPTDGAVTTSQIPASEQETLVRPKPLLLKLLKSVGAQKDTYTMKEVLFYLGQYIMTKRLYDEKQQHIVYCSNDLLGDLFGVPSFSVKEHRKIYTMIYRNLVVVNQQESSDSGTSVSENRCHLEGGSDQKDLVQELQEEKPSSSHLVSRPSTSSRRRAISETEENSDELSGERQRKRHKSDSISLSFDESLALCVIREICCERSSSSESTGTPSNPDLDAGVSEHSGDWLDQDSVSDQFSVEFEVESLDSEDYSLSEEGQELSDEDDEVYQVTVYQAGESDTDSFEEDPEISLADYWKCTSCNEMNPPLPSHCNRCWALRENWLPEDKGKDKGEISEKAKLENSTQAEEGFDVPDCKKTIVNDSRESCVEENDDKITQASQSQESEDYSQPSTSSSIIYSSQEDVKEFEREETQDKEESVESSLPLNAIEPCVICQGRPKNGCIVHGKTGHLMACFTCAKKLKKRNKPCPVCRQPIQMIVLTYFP

- activity against MDM2/X: did not show any activity
Compound: CC(C)(C)NC(=O)C(c1ccc(Cl)cc1)N1C(=O)CC1c1ccc(OCc2ccccc2)cc1 (stereo not shown) [Compound 2g]
